Paper PMC8151276, “An Integrated Approach toward NanoBRET Tracers for Analysis of GPCR Ligand Engagement” (Molecules, 2021)

How the values were obtained:
Format in all cases: binding
EDNRA = target: T1, EDNRA (Homo sapiens, UniProt P25101); assay: NanoBRET screen HiBiT-EDNRA in HEK293
T1 construct: purchased Promega (in-house HiBiT-GPCR construct library, NanoBRET)
T1 sequence (P25101 21-427): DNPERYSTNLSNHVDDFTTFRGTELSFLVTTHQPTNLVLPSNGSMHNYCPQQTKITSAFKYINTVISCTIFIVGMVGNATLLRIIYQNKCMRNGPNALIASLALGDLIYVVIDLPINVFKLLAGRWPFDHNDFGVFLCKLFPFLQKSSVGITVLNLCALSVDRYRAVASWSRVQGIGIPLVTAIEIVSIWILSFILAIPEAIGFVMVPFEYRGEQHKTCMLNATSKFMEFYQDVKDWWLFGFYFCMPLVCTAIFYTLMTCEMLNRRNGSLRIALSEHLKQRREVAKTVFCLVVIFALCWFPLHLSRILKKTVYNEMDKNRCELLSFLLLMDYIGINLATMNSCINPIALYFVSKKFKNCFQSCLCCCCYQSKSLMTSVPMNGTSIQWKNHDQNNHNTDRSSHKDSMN
Protocol: (§1) Each tracer candidate was screened across the entire library of HiBiT-GPCR constructs using NanoBRET as the detection modality. As depicted in Figure 4A, the specificity of interactions was evaluated through decrease in BRET due to competitive displacement of a bound tracer by excess parental compound. Each tracer was analyzed for binding to each HiBiT-GPCR fusion in the absence and in the presence of competing parental compound. Briefly, HEK293 cells were transfected with HiBiT-GPCR constructs diluted into promoterless DNA to reduce expression and maximize translocation to the cell surface. Each tracer candidate was then screened at concentrations of 1 μM and 0.1 μM across cells expressing these fusions. Cells were treated for 1.5 h with tracer either alone or in the presence of 20 μM competing parental compound (i.e., control). BRET was measured upon addition of purified LgBiT and subsequent complementation with HiBiT genetically fused to a GPCR. The specificity of interactions was assessed through a decrease in BRET signal due to competitive displacement of the bound tracer. To further gauge the robustness of these interactions, the fold response over the control (i.e., BRETtracer/BRETcontrol) was calculated. We chose a 1.5-fold response, which translates to ≥7-fold signal over noise as the minimal threshold required to score an interaction as positive. […]. Below we highlight the screening results obtained for our exemplary fluorescent tracers based on Clozapine, Amitriptyline and AZD1283.
(§2) HiBiT-GPCR DNA constructs were diluted in 10 mM Tris pH 8 to a final concentration of 0.01 μg/μL, arrayed in 96-well plates and stored at −20 °C. For transfection, HEK293 cells were suspended in Opti-MEM (without phenol red) supplemented with 2% fetal bovine serum (Seradigm) and 100 units/mL penicillin–streptomycin (Gibco) at a final concentration of 220,000 cells/mL and dispensed into white 96-well plates at 90 μL/well. Subsequent transfections and screens were carried using an Agilent Bravo Automated Liquid Handling Platform. First, the 96-well HiBiT DNA arrays were diluted 25-fold in Opti-MEM (without serum or phenol red) to a final concentration of 0.0004 μg/μL and 20 μL of the diluted DNAs were transferred into new 96-well plates. Next, promoterless carrier DNA (1 μg/μL) was diluted 25-fold (0.04 μg/μL) and then dispensed into the diluted arrays at 20 μL/well. Following brief mixing, Viafect transfection reagent (Promega) diluted 16-fold into Opti-MEM was dispensed into the plates at 40 μL/well. After mixing by pipetting, plates were incubated for 10 min on the pipetting station deck. The DNA-transfection reagent complexes were then added to plates containing cells. To facilitate the screen, 10 μL of DNA-transfection reagent complexes were added in duplicates to the top 4 and bottom 4 rows, resulting in two identical 48-well arrays per plate. Plates with transfected cells were incubated for 18–20 h at 37 °C/5% CO2. A screen of each tracer across the entire library using two different concentrations requires duplicate plates of transfected cells. Depending on the number of tracers being screened, transfections can be scaled up using the same ratios. The next day, for each tracer, four 20× screening solutions in tracer dilution buffer (Promega) were prepared: two duplicates at final concentration of 20 μM and two duplicates at a final concentration of 2 μM. A competing unmodified compound was added to one of each duplicate at a final concentration of 400 μM. The four resulting solutions were diluted 4-fold in Opti-MEM without serum or phenol red to generate 5× solutions (5 µM and 0.5 µM tracer +/− 100 μM competing compound). To screen the library, a BioTek MultiFlo FX liquid dispenser was used to dispense 22.5 µL of tracer solution to the top 4 rows and 22.5 µL tracer + competing compound solution to the 4 bottom rows. Plates were briefly mixed on an orbital shaker and incubated for 1.5 h at room temperature. […]

OPRK1 = target: T2, OPRK1 (Homo sapiens, UniProt P41145); assay: NanoBRET screen HiBiT-OPRK1 in HEK293
T2 construct: purchased Promega (in-house HiBiT-GPCR construct library, NanoBRET)
T2 sequence (P41145 whole entry): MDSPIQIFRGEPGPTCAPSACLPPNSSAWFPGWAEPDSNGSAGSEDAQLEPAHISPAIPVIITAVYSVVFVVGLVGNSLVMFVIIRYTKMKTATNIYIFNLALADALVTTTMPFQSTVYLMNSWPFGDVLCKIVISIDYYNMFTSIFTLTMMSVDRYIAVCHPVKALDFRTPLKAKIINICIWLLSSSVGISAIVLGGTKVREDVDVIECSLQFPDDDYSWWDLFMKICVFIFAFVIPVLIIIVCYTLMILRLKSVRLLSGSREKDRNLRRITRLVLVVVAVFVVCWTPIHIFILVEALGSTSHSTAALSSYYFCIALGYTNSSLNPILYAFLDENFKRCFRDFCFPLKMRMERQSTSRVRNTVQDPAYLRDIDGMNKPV
Protocol: as §1, §2

NMUR2 = target: T3, NMUR2 (Homo sapiens, UniProt Q9GZQ4); assay: NanoBRET screen HiBiT-NMUR2 in HEK293
T3 construct: purchased Promega (in-house HiBiT-GPCR construct library, NanoBRET)
T3 sequence (Q9GZQ4 whole entry): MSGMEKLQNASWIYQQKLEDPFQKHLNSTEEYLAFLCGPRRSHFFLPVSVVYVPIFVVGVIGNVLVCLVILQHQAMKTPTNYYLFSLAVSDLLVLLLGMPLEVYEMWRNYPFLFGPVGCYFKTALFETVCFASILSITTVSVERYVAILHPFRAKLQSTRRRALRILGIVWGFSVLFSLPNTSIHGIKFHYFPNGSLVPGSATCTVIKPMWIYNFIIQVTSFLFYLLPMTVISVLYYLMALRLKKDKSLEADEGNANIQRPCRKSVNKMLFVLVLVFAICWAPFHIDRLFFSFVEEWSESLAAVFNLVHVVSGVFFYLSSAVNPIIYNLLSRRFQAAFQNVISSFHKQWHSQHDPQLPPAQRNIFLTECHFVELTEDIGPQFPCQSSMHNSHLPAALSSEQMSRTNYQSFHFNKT
Protocol: as §1, §2

SMILES | NanoBRET Fold Response (EDNRA; EDNRA, tracer 0.1μM) | NanoBRET Fold Response (EDNRA; EDNRA, tracer 1μM) | NanoBRET Fold Response (OPRK1; OPRK1, tracer 0.1μM) | NanoBRET Fold Response (OPRK1; OPRK1, tracer 1μM) | NanoBRET Fold Response (NMUR2; NMUR2, tracer 0.1μM) | NanoBRET Fold Response (NMUR2; NMUR2, tracer 1μM) | further results
O=C(CCc1ccc2n1[B-](F)(F)[N+]1=C(c3ccc[nH]3)C=CC1=C2)NCc1ccc(C(=O)NCCOCCOCCNCC(O)COc2cccc3ccccc23)cc1 (stereo not drawn) [Propranolol-3-NB590] | – | – | – | – | – | – | NanoBRET Fold Response (EDNRA; EDNRA, 0.1μM): 0.97; NanoBRET Fold Response (EDNRA; EDNRA, 1μM): 1.03; NanoBRET Fold Response (OPRK1; OPRK1, 0.1μM): 1.08; NanoBRET Fold Response (OPRK1; OPRK1, 1μM): 1.02; NanoBRET Fold Response (NMUR2; NMUR2, 0.1μM): 1.06; NanoBRET Fold Response (NMUR2; NMUR2, 1μM): 1.08
O=C(CCc1ccc2n1[B-](F)(F)[N+]1=C(c3ccc[nH]3)C=CC1=C2)NCc1ccc(C(=O)NCCOCCC(=O)N[C@@H]2CC[C@@]3(O)[C@H]4Cc5ccc(O)c6c5[C@@]3(CCN4CC3CC3)[C@H]2O6)cc1 [Naltrexone-3-NB590] | 1.00 | 0.98 | 2.19 | 1.53 | 0.78 | 0.84 | –
N#CN=C(NCCCOc1cccc(CN2CCCCC2)c1)NCCNC(=O)CCOCCOCCOCCOCCNC(=O)CCc1ccc2n1[B-](F)(F)[N+]1=C(c3ccc[nH]3)C=CC1=C2 [Aminopotentidine-2-NB590] | 1.03 | 1.04 | 1.14 | 1.07 | 1.02 | 1.05 | –
COc1ccc2c(n1)c(CCNC(C)=O)cn2CCNC(=O)CCc1ccc2n1[B-](F)(F)[N+]1=C(c3ccc[nH]3)C=CC1=C2 [Azamelatonin-1-NB590] | – | – | – | – | – | – | NanoBRET Fold Response (EDNRA; 0.1μM tracer): 0.91; NanoBRET Fold Response (EDNRA; 1μM tracer): 0.91; NanoBRET Fold Response (OPRK1; 0.1μM tracer): 0.92; NanoBRET Fold Response (OPRK1; 1μM tracer): 0.92; NanoBRET Fold Response (NMUR2; 0.1μM tracer): 1.00; NanoBRET Fold Response (NMUR2; 1μM tracer): 1.16
CC(C)N(CC[C@H](c1ccccc1)c1cc(CCNC(=O)c2ccc(CNC(=O)CCc3ccc4n3[B-](F)(F)[N+]3=C(c5ccc[nH]5)C=CC3=C4)cc2)ccc1O)C(C)C [Tolterodine-BZ-NB590] | 1.05 | 1.11 | 0.90 | 0.96 | 1.00 | 1.06 | –
CN1CCN(C2=Nc3cc(Cl)ccc3Nc3ccc(CNC(=O)CCOCCOCCOCCOCCNC(=O)CCc4ccc5n4[B-](F)(F)[N+]4=C(c6ccc[nH]6)C=CC4=C5)cc32)CC1 [Clozapine-b-2-NB590] | – | – | – | – | – | – | NanoBRET Fold Response (EDNRA; EDNRA, 0.1μM tracer): 0.99; NanoBRET Fold Response (EDNRA; EDNRA, 1μM tracer): 1.03; NanoBRET Fold Response (OPRK1; OPRK1, 0.1μM tracer): 0.99; NanoBRET Fold Response (OPRK1; OPRK1, 1μM tracer): 0.96; NanoBRET Fold Response (NMUR2; NMUR2, 0.1μM tracer): 0.97; NanoBRET Fold Response (NMUR2; NMUR2, 1μM tracer): 1.00
